Laboratory results: PubChem BioAssay (NCI)
Where “and” joins values, the source holds several entries; their conditions need not be identical. Equal entries are not always repeated.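 Cells were grown in 96-well plates and exposed to each compound for 48 hours at five concentrations; endpoints were interpolated linearly between bracketing concentrations, or set to the highest concentration if not reached. GI50: concentration for 50% inhibition of growth. TGI is the concentration that stops growth completely.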

Columns and labels:
Assay in all cases: NCI-60 cell line screen, 48 h
HCT-15 colon = tested on: HCT-15 colon
HCT-116 colon = tested on: HCT-116 colon
SK-OV-3 ovarian = tested on: SK-OV-3 ovarian
CAKI-1 renal = tested on: CAKI-1 renal
U251 CNS = tested on: U251 CNS
UACC-257 melanoma = tested on: UACC-257 melanoma
MOLT-4 leukemia = tested on: MOLT-4 leukemia
MDA-MB-231 breast = tested on: MDA-MB-231 breast
SF-268 CNS = tested on: SF-268 CNS
A498 renal = tested on: A498 renal

| Compound | TGI (HCT-15 colon) [µM] | TGI (HCT-116 colon) [µM] | TGI (SK-OV-3 ovarian) [µM] | TGI (CAKI-1 renal) [µM] | TGI (U251 CNS) [µM] | TGI (UACC-257 melanoma) [µM] | TGI (MOLT-4 leukemia) [µM] | TGI (MDA-MB-231 breast) [µM] | TGI (SF-268 CNS) [µM] | TGI (A498 renal) [µM] | GI50 (HCT-15 colon) | GI50 (HCT-116 colon) | GI50 (SK-OV-3 ovarian) [µM] | GI50 (CAKI-1 renal) [µM] | GI50 (MDA-MB-231 breast) [µM] | GI50 (U251 CNS) [µM] | GI50 (UACC-257 melanoma) [µM] | GI50 (MOLT-4 leukemia) [µM] | GI50 (A498 renal) [µM] | GI50 (SF-268 CNS) [µM] |
| --- | --- | --- | --- | --- | --- | --- | --- | --- | --- | --- | --- | --- | --- | --- | --- | --- | --- | --- | --- | --- |
| C=C(CCCO)[C@@H]1CC[C@@](C)(O)[C@H]1C | > 100 | > 100 | > 100 | > 100 | > 100 | > 100 | > 100 | – | – | – | – | – | – | – | – | – | – | – | – | – |
| O=[N+]([O-])c1cc2c([N+](=O)[O-])cccc2o1 | 23 | > 100 | 31.3 | 5.77 | > 100 | 21.8 | – | 27.6 | 31.1 | 43.5 | – | – | – | – | – | – | – | – | – | – |
| CCOC1CC2OC(=O)C1C=C2C(=O)OC (stereo unspecified) | > 100 | – | > 100 | 40 | > 100 | 74.2 | 48.8 | – | > 100 | > 100 | – | – | – | – | – | – | – | – | – | – |
| CSCCC(C(=O)O)N(CC1(O)OCC(O)C(O)C1O)N=O (stereo unspecified) | – | > 100 | > 100 | – | > 100 | > 100 | > 100 | – | – | > 100 | – | – | – | – | – | – | – | – | – | – |
| C[Si](C)(C)C(Sc1ccccc1)(Sc1ccccc1)Sc1ccccc1 | > 100 | > 100 | > 100 | > 100 | > 100 | > 100 | > 100 | – | > 100 | > 100 | – | – | – | – | – | – | – | – | – | – |
| CCOC(=O)C(C(O)c1ccc([N+](=O)[O-])cc1)P(=O)(OCC)OCC (stereo unspecified) | > 100 | > 100 | – | > 100 | > 100 | – | > 100 | – | > 100 | > 100 | – | – | – | – | – | – | – | – | – | – |
| CC1C2CC=CC(=O)[C@@]2(C)CCC12OCCO2 (stereo partly specified) | – | > 100 | > 100 | > 100 | > 100 | > 100 | > 100 | – | > 100 | > 100 | – | – | – | – | – | – | – | – | – | – |
| COc1c2c(cc3c1C(=O)Cc1ccc4c(c1CN(C)CC3)OCO4)OCO2 | > 100 | > 100 | > 100 | > 100 | > 100 | > 100 | > 100 | – | > 100 | – | – | – | – | – | – | – | – | – | – | – |
| COc1ccc2c(c1OC(C)=O)C1=CC(=O)CCC13CCNC3C2 (stereo unspecified) | > 100 | > 100 | > 100 | > 100 | > 100 | > 100 | > 100 | > 100 | > 100 | – | – | – | – | – | – | – | – | – | – | – |
| Cn1cnc([N+](=O)[O-])c1Sc1nccc(=O)[nH]1 | – | > 100 | > 100 | > 100 | > 100 | > 100 | > 100 | – | > 100 | > 100 | – | – | – | – | – | – | – | – | – | – |
| COCCn1cc(-c2csc(-c3c[nH]c4ccc(Br)cc34)n2)c2cccnc21 | > 100 | > 100 | > 100 | > 100 | 73.2 | 64.2 | > 100 | > 100 | – | 15.9 | 3.14 µM | 3.84 µM | 13.9 | 5.21 | 2.65 | 6.18 | 8.69 | 3.87 | 3.02 | – |
| C/C(=N\NC(=O)CC(=O)N(C(=O)c1ccc(Cl)cc1)c1ccc(C)cc1)c1ccccc1O | > 100 | > 100 | > 100 | > 100 | > 100 | > 100 | > 100 | – | > 100 | > 100 | – | – | – | – | – | – | – | – | – | – |
| CCOC(=O)CNc1nnnn1C1OC(CO)C(O)C1O (stereo unspecified) | > 100 | > 100 | > 100 | > 100 | > 100 | > 100 | > 100 | – | > 100 | > 100 | – | – | – | – | – | – | – | – | – | – |
| CC1CC[P+](c2ccccc2)(c2ccccc2)CC1 | > 100 | > 100 | > 100 | – | > 100 | > 100 | > 100 | – | – | > 100 | – | – | – | – | – | – | – | – | – | – |
| C=CCN(N=O)C(=O)NCCCCC(NC(C)=O)C(=O)NCc1ccccc1 (stereo unspecified) | > 100 | – | > 100 | > 100 | > 100 | > 100 | > 100 | – | > 100 | > 100 | – | – | – | – | – | – | – | – | – | – |
| O=c1cc(-c2ccccc2)[nH]c2cc(Cl)ccc12 | 15.8 | > 100 | 3.95 | 11.4 | 3.91 | 83.2 | 15.9 | – | > 100 | > 100 | – | – | – | – | – | – | – | – | – | – |
| [CH3][Sn]([CH3])([CH3])[O][N+](=O)[O-] | 4.13 | > 10 | > 10 | > 10 | 2.77 | > 10 | > 10 | 7.35 | > 10 | – | 2 µM | 2.9 µM | > 10 | 4.24 | 3.67 | 1.45 | 6.81 | 3.2 | – | 3.63 |
| COc1cc(/C=C2/C(=O)N(C(=O)OCc3ccccc3)C(Cc3cc(OC)c(OC)c(C)c3OC)C(=O)N2Cc2ccccc2)c(OC)c(C)c1OC (stereo unspecified) | – | > 100 | > 100 | > 100 | > 100 | > 100 | > 100 | – | > 100 | > 100 | – | – | – | – | – | – | – | – | – | – |
| O=C(O[C@H]1CCN2C[C@H]3C[C@H](CN4C(=O)CCC[C@H]34)[C@@H]2C1)c1ccc(O)cc1 | > 100 | > 100 | > 100 | > 100 | > 100 | > 100 | – | > 100 | > 100 | > 100 | – | – | – | – | – | – | – | – | – | – |
| COC(=O)C(=O)C(C(=O)C(=O)Nc1cc(C)ccc1C)c1nc2ccc(C(=O)c3ccccc3)cc2[nH]c1=O (stereo unspecified) | > 100 | > 100 | – | > 100 | > 100 | > 100 | > 100 | – | > 100 | – | – | – | – | – | – | – | – | – | – | – |
| CCN=C(C#N)NCC | > 100 | > 100 | > 100 | > 100 | > 100 | > 100 | > 100 | – | > 100 | > 100 | – | – | – | – | – | – | – | – | – | – |
| COc1ccc(CCc2cc(OC)c(O)c(OC)c2)cc1 | – | > 100 | > 100 | > 100 | > 100 | 91.6 | > 100 | – | > 100 | – | – | – | – | – | – | – | – | – | – | – |
| CCCCCCCCCCCCCB(O)O | > 100 | > 100 | > 100 | – | > 100 | > 100 | – | – | > 100 | > 100 | > 100 µM and 49.3 µM | > 100 µM and 47.8 µM | – | – | – | – | – | – | – | – |
